According to patent US20160297820A1, “DIMERIZER COMPOUND” (AGENCY FOR SCIENCE, TECHNOLOGY AND RESEARCH, priority 2013, published 2016):
Changes are numbered by the printed parent chain.

How the values were obtained:
[1] = tested on: SNAP-Gal4 and CLIP-AD2 (firefly luciferase under the control of 9 UAS elements); assay: Luciferase up-regulation through dimerization of SNAP-Gal4 and CLIP-AD2 in transfected HEK293 cells (pGL4.35 reporter); assay type: cell-based; conditions: for luciferase expression after UV illumination: 20 μM, 96-well plate, 365 nm UV for 10 minutes just after application, harvested one day after, FIG. 8d; for luciferase production: HEK293, harvested 24 hours after treatment, FIG. 8a
From the text: pGL4.35 (obtained from Promega of Singapore) contains firefly luciferase under the control of 9 UAS elements. SNAP was amplified from pSNAPf with SNAP-XhoI-C and SNAP NheI N; CLIP from pCLIPf with NheI NLC CLIP and SNAP-XhoI-C; Gal4 from pCMV-Gal4 with Gal4 HisTag BamHI and SNAP-Gal4 N; activation domains (AD2) from pHet-Act2-1 with SNAP-p65AD-HSF1AD N and p65 AD-HSF1AD HisTag BamHI. The individual PCR reactions were combined by SOEing PCR (Splicing by Overlap Extension) to make SNAP-Gal4 and CLIP-AD2 PCR products. These were then cloned into peGFP-C1 with the NheI and BamHI sites, removing eGFP in the process. Both constructs contained the nuclear localizing signal.
(§1) HEK293 cells were obtained from ATCC and grown in DMEM medium supplemented by 10% FCS and penicillin-streptomycin at 37° C. and 5% carbon dioxide. All experiments performed were carried out in 24 well plates seeded with 1×10^5 cells per well. Transfection was performed with Lipofectamine 2000 (Invitrogen™, Life Technologies of Singapore) as per manufacturer's instructions the day after seeding. Medium was changed the day after transfection.
(§2) The dimerizers (or Compounds 1 and 2) were dissolved to 1 mM in DMSO and diluted further with DMSO so all applications were done by adding 4 μl of DMSO with compound 1 dissolved in it to 400 μl of medium for each well. Compound 1 was added at the mentioned concentration two days after transfection and incubated for 3 to 6 hours before the cells were harvested with RIPA Lysis and Extraction buffer (from Thermo Fisher Scientific Inc of Illinois of the United States of America). Compound 2 was added at the mentioned concentration three days after transfection and incubated for a specified duration before the cells were harvested.
HEK293 cells (in a 24-well plate) transfected with 400 ng pSNAP-Gal4 (Gal4 is a DNA-binding domain fused to SNAP), 200 ng pCLIP-AD2 (AD2 is a transcriptional activator fused to CLIP) and 100 ng pGL4.35 (GL4.35 is a luciferase reporter construct containing nine Gal4 binding motif for gene activation) were treated with stated amounts of either Compound 1 or 2 in 400 μl medium 1 day after transfection. Cells were harvested 24 hours after treatment and the levels of luciferase measured. FIG. 7 is a schematic diagram showing the up-regulation of luciferase.
Here, the cells were transfected as above and 8 μM of compound 2 was added to the cells one day after transfection. One day after, the cells were either illuminated with a fluorescent lamp or with a 365 nm UV lamp for 5 minutes. 0, 6, 24 or 48 hours later, the cells were harvested and the levels of luciferase measured.
The cells were transfected as above and 10 μM of compound 2 was added to the cells one day after transfection. One day after, the cells were illuminated with a 365 nm UV lamp for 10 minutes. […] Experiments were carried out in triplicates. The purpose of this experiment is to use a slightly higher amount of compound 2 and a longer UV irradiation time to optimize the linker cleavage.
HEK293 cells were transfected with the same ratio of plasmids in a 96-well plate and treated with 2% DMSO, 20 μM compound 1 or 20 μM compound 2 one day after transfection. Just after application, some of the cells were illuminated with 365 nm UV for 10 minutes. One day after, the cells were harvested.

SNAP-eGFP and CLIP-eGFP = target: T1, SNAP-eGFP and CLIP-eGFP (Homo sapiens, UniProt P16455, A121V/A127T/A154D/C150Q/C62A/E30R/G131K/G131N/G132T/G153L/G153S/K125A/K32I/L33F/M134L/M60I/N157G/N157P/Q115S/Q116H/R128A/R135D/R135S/S151G/S152D/S159E/S159L/Y114E); assay: Dimerization of SNAP-eGFP and CLIP-eGFP in transfected HEK293 cells, western blot against eGFP; assay type: cell-based
T1 construct: host or cells: HEK293
T1 sequence (P16455 1-182 E30R/K32I/L33F/C62A/Q115S/Q116H/K125A/A127T/R128A/G131K/G132T/M134L/R135S/C150Q/S151G/S152D/G153L/A154D/N157G/S159E limits assumed): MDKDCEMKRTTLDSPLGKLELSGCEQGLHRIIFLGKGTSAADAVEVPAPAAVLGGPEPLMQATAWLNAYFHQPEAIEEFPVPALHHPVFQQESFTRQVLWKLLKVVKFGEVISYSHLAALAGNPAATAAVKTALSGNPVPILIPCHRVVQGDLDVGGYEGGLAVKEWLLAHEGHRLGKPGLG
T1 sequence (P16455 1-182 E30R/K32I/L33F/M60I/C62A/Y114E/Q115S/Q116H/A121V/K125A/A127T/R128A/G131N/G132T/M134L/R135D/C150Q/S151G/S152D/G153S/A154D/N157P/S159L limits assumed): T1 sequence (P16455 1-182 E30R/K32I/L33F/C62A/Q115S/Q116H/K125A/A127T/R128A/G131K/G132T/M134L/R135S/C150Q/S151G/S152D/G153L/A154D/N157G/S159E limits assumed) with M60I, Y114E, A121V, K131N, S135D, L153S, G157P, E159L
From the text: Mammalian expression vectors for SNAP-eGFP and CLIP-eGFP were constructed from pSNAPf and pCLIPf (obtained from New England Biolabs of Singapore). eGFP was amplified using primers XhoI eGFP F and NotI eGFP R from pEGFP-NAD. The amplified DNA fragment was digested using XhoI/NotI and cloned into pSNAPf and pCLIPf for C-terminal fused eGFP-SNAP and eGFP-CLIP constructs respectively.
as §1
as §2, with “harvested. […]” for “harvested.”
HEK293 cells were transfected with 250 ng of SNAP-eGFP and CLIP-eGFP. 3 days after transfection, increasing concentrations of 0.1 to 10 μM (0.1 μM, 0.4 μM, 1 μM, 4 μM, and 10 μM) of photocleavable dimerizer (Compound 2) were applied to the cells with fresh medium and the cells were harvested 6 hours after. […] The cleaved samples were equivalent volumes of uncleaved samples subjected to 365 nm illumination for 10 minutes.

Question: For `Nc1ccnc(OCc2ccc(CNC(=O)NCCOCCOCCOCCNC(=O)CCCC(=O)NCc3ccc(COc4nc(N)nc5[nH]cnc45)cc3)cc2)n1` [Compound 1], which “luciferase expression after UV illumination” value [1] is on record?
Answer: did not

Question: What about the luciferase production [1] of the same compound?
Answer: produced in a dose-dependent fashion

Question: What about the “stability of the dimer in the cell (no change in dimerization)” value (SNAP-eGFP and CLIP-eGFP; HEK293, 5 μM, FIG. 6c) of the same compound?
Answer: ≥ 3 days

Question: And the “time after application to maximal dimerization” value (SNAP-eGFP and CLIP-eGFP; HEK293, 5 μM, FIG. 6c)?
Answer: ≤ 24 h

Question: And the “time after application to near saturation of dimerization” value (SNAP-eGFP and CLIP-eGFP; HEK293, 5 μM, FIG. 6c)?
Answer: 3 h

Question: And the “dimerization of SNAP-eGFP and CLIP-eGFP (specificity)” value (SNAP-eGFP and CLIP-eGFP; HEK293, SNAP-eGFP and CLIP-eGFP together vs either alone, 0, 5 or 20 μM, harvested 6 hours after, FIG. 6a)?
Answer: heterodimerization occurred specifically

Question: What about the cell penetration (SNAP-eGFP and CLIP-eGFP; HEK293 cells in culture, applied with DMSO) of the same compound?
Answer: could penetrate cells in culture

Question: What about the “concentration at which dimerization occurs” value (SNAP-eGFP and CLIP-eGFP; HEK cells, 0.1 nM to 10,000 nM applied, harvested 3 hours after, FIG. 6b) of the same compound?
Answer: 400 nM

Question: And the “dose dependence of heterodimerization” value (SNAP-eGFP and CLIP-eGFP; HEK cells, 0.1 nM to 10,000 nM, harvested 3 hours after, FIG. 6b)?
Answer: dose-dependent manner

Question: For `COc1cc(C(C)NC(=O)CCCC(=O)NCc2ccc(COc3nc(N)nc4[nH]cnc34)cc2)c([N+](=O)[O-])cc1OCCCC(=O)NCCOCCOCCOCCNC(=O)NCc1ccc(COc2nccc(N)n2)cc1` (stereo not drawn) [Compound 2], which “expression of luciferase, UV illumination compared to fluorescent lamp” value ([1]; 8 μM, 365 nm UV lamp for 5 minutes, harvested 0, 6, 24 or 48 hours later, FIG. 8b) is on record?
Answer: lower expression of luciferase

Question: And the “luciferase expression after UV illumination” value [1]?
Answer: decreased luciferase expression

Question: What about the “luciferase upregulation after exposure to UV illumination” value ([1]; FIG. 8b to FIG. 8d) of the same compound?
Answer: less effective

Question: What about the luciferase production [1] of the same compound?
Answer: luciferase was produced

Question: What about the “reversal of dimerization by 365 nm illumination” value (SNAP-eGFP and CLIP-eGFP; 365 nm illumination for 10 minutes, FIG. 6d) of the same compound?
Answer: partially reversing dimerization

Question: What about the “induction of dimerization of SNAP-eGFP and CLIP-eGFP” value (SNAP-eGFP and CLIP-eGFP; HEK293, 0.1 to 10 μM, harvested 6 hours after, FIG. 6d) of the same compound?
Answer: could induce dimerization at lower concentrations than compound 1
